Data taken from patent US20260137706A1, “METHODS OF TREATING INFLAMMATORY DISEASES” (INTERLINE THERAPEUTICS, INC., priority 2023, published 2026).

Columns and labels:
[1] = target: T1, GST-RIPK2 fusion protein (human RIPK2, amino acids 1-310) (Homo sapiens, UniProt O43353); assay: RIPK2 binding competition assay (TR-FRET, Tracer 199 displacement); settings: 10 nM Tracer 199, 1 nM GST-RIPK2, read-out: RIPK2 IC50
T1 construct: made in house; host or cells: baculovirus infected Sf9 cells
How it was run: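 IC50 derived from the TR-FRET emission ratio (665/620 nm, 337 nm excitation), normalized with no-inhibitor and no-enzyme controls. Incubation 45 min at 22 °C, pH 7.5 Tris buffer, with final 10 nM tracer, 1 nM Sf9-expressed GST-RIPK2 fragment (aa 1-310) and 0.5 nM Tb-labelled anti-GST.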

[2] = system: NF-κB pathway (SEAP) in THP1-Dual cells; assay: THP-1 Dual cell SEAP assay (L18-MDP stimulated); assay type: cell-based; settings: Homo sapiens, THP1-Dual, read-out: NF-κB THP1 IC50 bin
How it was run: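 IC50 values derive from non-linear regression of % inhibition, calculated against DMSO/L18-MDP-treated wells after media-only subtraction. NF-κB SEAP activity was read at OD 620-655 nm (QUANTI-Blue, 2 h, 37 °C) from supernatants of THP1-Dual cells. Cells had been compound-treated 30 min before overnight (20-24 h) stimulation with 10 ng/mL final L18-MDP.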

[3] = target: T2, binding of His-XIAP(BIR2)-avi fusion protein to GST-RIPK2 fusion protein (RIPK2/XIAP) (Homo sapiens, UniProt O43353); assay: RIPK2-XIAP binding competition PPI assay (TR-FRET); settings: RIPK2/XIAP binding competition PPI assay; for Emax: Amax, read-out: PPI Amax bin; for IC50: read-out: PPI IC50 bin
T2 construct: made in house; host or cells: baculovirus infected Sf9 cells
How it was run: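 Compounds (in DMSO, 100-fold stock) incubated 120 min at 23 °C with 1 nM GST-RIPK2 (aa 1-310) and 25 nM His-XIAP(BIR2 aa 152-231)-avi, plus anti-His-XL665 and anti-GST-Tb, in pH 7.5 Tris buffer. Read-out: 665/520 nm emission ratio. Normalized to no-inhibitor (0%) and 50 nM GSK583 (−100%); Amax binned A–D.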

T2 sequence (O43353 1-310 limits assumed): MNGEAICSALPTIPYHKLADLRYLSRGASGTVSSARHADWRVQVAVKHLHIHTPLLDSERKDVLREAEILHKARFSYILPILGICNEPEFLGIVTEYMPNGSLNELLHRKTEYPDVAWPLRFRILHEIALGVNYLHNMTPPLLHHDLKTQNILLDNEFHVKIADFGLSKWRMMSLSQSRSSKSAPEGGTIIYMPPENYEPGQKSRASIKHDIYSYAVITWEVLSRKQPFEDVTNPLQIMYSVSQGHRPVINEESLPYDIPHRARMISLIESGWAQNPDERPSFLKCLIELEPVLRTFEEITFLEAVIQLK
T1 sequence (O43353 1-310): as the sequence (O43353 1-310 limits assumed) above

| Compound | IC50 [1] [nM] | IC50 [2] [nM] | Emax [3] [%] | IC50 [3] [nM] |
| --- | --- | --- | --- | --- |
| CC(C)(C)S(=O)(=O)c1cn2c(-c3cnc4ccnn4c3)cnc2cc1OCCO [Example 221, 2-((6-(tert-butylsulfonyl)-3-(pyrazolo[1,5-a]pyrimidin-6-yl)imidazo[1,2-a]pyridin-7-yl)oxy)ethan-1-ol] | > 20 | > 1000 | > 80 | > 20 |
| CC(C)(C)S(=O)(=O)c1cn2c(-c3cnc4[nH]ncc4c3)cnc2cc1OCCO [Example 222, 2-((6-(tert-butylsulfonyl)-3-(1H-pyrazolo[3,4-b]pyridin-5-yl)imidazo[1,2-a]pyridin-7-yl)oxy)ethan-1-ol] | 2.5 to 20 | > 1000 | < 30 | > 20 |
| COc1c(F)cc(-c2cnc3cc(OCCO)c(S(=O)(=O)C(C)(C)C)cn23)cc1NS(C)(=O)=O [Example 223, N-(5-(6-(tert-butylsulfonyl)-7-(2-hydroxyethoxy)imidazo [1,2-a]pyridin-3-yl)-3-fluoro-2-methoxyphenyl) methanesulfonamide] | < 1 | 50 to 250 | 55 to 80 | < 1 |
| CCS(=O)(=O)Nc1cc(-c2cnc3cc(OCCO)c(S(=O)(=O)C(C)(C)C)cn23)cc(F)c1OC [Example 224, N-(5-(6-(tert-butylsulfonyl)-7-(2-hydroxyethoxy)imidazo [1,2-a]pyridin-3-yl)-3-fluoro-2-methoxyphenyl) ethanesulfonamide] | < 1 | < 50 | > 80 | < 1 |
| COc1c(F)cc(-c2cnc3cc(OCCO)c(S(=O)(=O)C(C)(C)C)cn23)cc1NS(=O)(=O)c1cnn(C)c1 [Example 225, N-(5-(6-(tert-butylsulfonyl)-7-(2-hydroxyethoxy)imidazo[1,2-a]pyridin-3-yl)-3-fluoro-2-methoxyphenyl)-1-methyl-1H-pyrazole-4-sulfonamide] | < 1 | < 50 | > 80 | < 1 |
| COc1c(F)cc(-c2cnn3cc(OCCO)c(S(=O)(=O)C(C)(C)C)cc23)cc1NS(=O)(=O)c1cnn(C)c1 [Example 226, N-(5-(5-(tert-butylsulfonyl)-6-(2-hydroxyethoxy)pyrazolo [1,5-a]pyridin-3-yl)-3-fluoro-2-methoxyphenyl)-1-methyl-1H-pyrazole-4-sulfonamide] | < 1 | < 50 | > 80 | < 1 |
| COc1cc2ncc(-c3cc(F)c(OC)c(NS(=O)(=O)c4cnn(CCO)c4)c3)n2cc1S(=O)(=O)C(C)(C)C [Example 227, N-(5-(6-(tert-butylsulfonyl)-7-methoxyimidazo[1,2-a]pyridin-3-yl)-3-fluoro-2-methoxyphenyl)-1-(2-hydroxyethyl)-1H-pyrazole-4-sulfonamide] | 1 to 2.5 | < 50 | > 80 | < 1 |
| C[C@H](CO)COc1cc2ncc(-c3cc4cc[nH]c4nc3F)n2cc1S(=O)(=O)C(C)(C)C [Example 228, (R)-3-((6-(tert-butylsulfonyl)-3-(6-fluoro-1H-pyrrolo[2,3-b]pyridin-5-yl)imidazo[1,2-a]pyridin-7-yl)oxy)-2-methylpropan-1-ol] | < 1 | < 50 | > 80 | < 1 |
| CC(C)(C)S(=O)(=O)c1cn2c(-c3cnc4[nH]cnc4c3)cnc2cc1OCCO [Example 229, 2-((6-(tert-butylsulfonyl)-3-(3H-imidazo[4,5-b]pyridin-6-yl)imidazo[1,2-a]pyridin-7-yl)oxy)ethan-1-ol] | > 20 | > 1000 | < 30 | > 20 |
| CC1(C)CNc2ncc(-c3cnc4cc(OCCO)c(S(=O)(=O)C(C)(C)C)cn34)cc21 [Example 230, 2-((6-(tert-butylsulfonyl)-3-(3,3-dimethyl-2,3-dihydro-1H-pyrrolo[2,3-b]pyridin-5-yl)imidazo[1,2-a]pyridin-7-yl)oxy)ethan-1-ol] | > 20 | > 1000 | < 30 | > 20 |
| CC(C)(C)S(=O)(=O)c1cn2c(-c3cnc4[nH]nnc4c3)cnc2cc1OCCO [Example 231, 2-((3-(3H-[1,2,3]triazolo[4,5-b]pyridin-6-yl)-6-(tert-butylsulfonyl)imidazo [1,2-a]pyridin-7-yl)oxy)ethan-1-ol] | > 20 | > 1000 | 30 to 55 | > 20 |
| Cc1cc2cc(-c3cnc4cc(OCCO)c(S(=O)(=O)C(C)(C)C)cn34)cnc2[nH]1 [Example 232, 2-((6-(tert-butylsulfonyl)-3-(2-methyl-1H-pyrrolo[2,3-b]pyridin-5-yl)imidazo[1,2-a]pyridin-7-yl)oxy)ethan-1-ol] | 2.5 to 20 | > 1000 | 30 to 55 | < 1 |
| CC(C)(C)S(=O)(=O)c1cn2c(-c3cnc4[nH]c(Cl)cc4c3)cnc2cc1OCCO [Example 233, 2-((6-(tert-butylsulfonyl)-3-(2-chloro-1H-pyrrolo[2,3-b]pyridin-5-yl)imidazo[1,2-a]pyridin-7-yl)oxy)ethan-1-ol] | 2.5 to 20 | > 1000 | < 30 | > 20 |
| COc1cc2ncc(-c3cc(F)c(OC)c(NS(=O)(=O)c4cnn(C)c4)c3)n2cc1C1(F)CCN(C)CC1 [Example 234, N-(3-fluoro-5-(6-(4-fluoro-1-methylpiperidin-4-yl)-7-methoxyimidazo[1,2-a]pyridin-3-yl)-2-methoxyphenyl)-1-methyl-1H-pyrazole-4-sulfonamide] | < 1 | < 50 | > 80 | < 1 |
| CC(C)(C)S(=O)(=O)c1cn2c(-c3cnc4nccn4c3)cnc2cc1OCCO [Example 235, 2-((6-(tert-butylsulfonyl)-3-(imidazo[1,2-a]pyrimidin-6-yl)imidazo[1,2-a]pyridin-7-yl)oxy)ethan-1-ol] | > 20 | > 1000 | < 30 | > 20 |
| CC(C)(C)S(=O)(=O)c1cn2c(-c3cc4c(F)c[nH]c4nc3F)cnc2cc1OCCO [Example 236, 2-((6-(tert-butylsulfonyl)-3-(3,6-difluoro-1H-pyrrolo[2,3-b]pyridin-5-yl)imidazo[1,2-a]pyridin-7-yl)oxy)ethan-1-ol] | < 1 | < 50 | > 80 | < 1 |
| CC(C)(C)S(=O)(=O)c1cn2c(-c3cnc4c(c3)C3(CC3)CN4)cnc2cc1OCCO [Example 237, 2-((6-(tert-butylsulfonyl)-3-(1′,2′-dihydrospiro [cyclopropane-1,3′-pyrrolo[2,3-b]pyridin] -5′-yl)imidazo[1,2-a]pyridin-7-yl)oxy)ethan-1-ol] | > 20 | > 1000 | < 30 | > 20 |
| CCOc1cc2ncc(-c3cc4cc[nH]c4nc3F)n2cc1S(=O)(=O)C(C)C [Example 238, 7-ethoxy-3-(6-fluoro-1H-pyrrolo[2,3-b]pyridin-5-yl)-6-(isopropylsulfonyl) imidazo[1,2-a]pyridine] | 1 to 2.5 | 50 to 250 | > 80 | 1 to 2.5 |
| CC(N)COc1cc2ncc(-c3cc(Cl)c(N)nc3F)n2cc1S(=O)(=O)C(C)(C)C (stereo not shown) [Example 239, 5-(7-(2-aminopropoxy)-6-(tert-butylsulfonyl)imidazo [1,2-a]pyridin-3-yl)-3-chloro-6-fluoropyridin-2-amine] | 2.5 to 20 | 250 to 1000 | > 80 | 2.5 to 20 |
| CC(C)(O)COc1cc2ncc(-c3cc(Cl)c(N)nc3F)n2cc1S(=O)(=O)C(C)(C)C [Example 240, 1-((3-(6-amino-5-chloro-2-fluoropyridin-3-yl)-6-(tert-butylsulfonyl)imidazo [1,2-a]pyridin-7-yl)oxy)-2-methylpropan-2-ol] | 1 to 2.5 | 50 to 250 | > 80 | 1 to 2.5 |
| CC(C)(N)COc1cc2ncc(-c3cc(Cl)c(N)nc3F)n2cc1S(=O)(=O)C(C)(C)C [Example 241, 5-(7-(2-amino-2-methylpropoxy)-6-(tert-butylsulfonyl)imidazo [1,2-a]pyridin-3-yl)-3-chloro-6-fluoropyridin-2-amine] | 2.5 to 20 | 250 to 1000 | > 80 | 2.5 to 20 |
| CCS(=O)(=O)c1cn2c(-c3cc(F)c(OC)c(NS(=O)(=O)c4cnn(C)c4)c3)cnc2cc1OC [Example 242, N-(5-(6-(ethylsulfonyl)-7-methoxyimidazo[1,2-a]pyridin-3-yl)-3-fluoro-2-methoxyphenyl)-1-methyl-1H-pyrazole-4-sulfonamide] | < 1 | 50 to 250 | > 80 | < 1 |
